Active and inactive are the calls of the source. The rule behind the calls is not given here.
Legend:
[1] = test system: Protein cereblon/Epidermal growth factor receptor (Homo sapiens), P00533+Q96SW2 [L858R,T790M,C797S]; assay: PROTAC activity at CRBN/EGFR L858R/T790M/C797S mutant in human H1975-TM cells assessed as induction of EGFR degradation by measuring remaining activity at 100 nM incubated for 3 hrs by Western blot analysis (reference value: 100%); type: cell-based
[2] = molecular target: Ribosomal protein S6 kinase alpha-1 (Homo sapiens) (UniProt Q15418); assay: Induction of RPS6KA1 degradation in human H1975-TM cells at 50 nM incubated for 24 hrs; type: cell-based
[3] = test system: Protein cereblon/Epidermal growth factor receptor (Homo sapiens), P00533+Q96SW2 [L858R,T790M,C797S]; assay: PROTAC activity at CRBN/EGFR L858R/T790M/C797S mutant in human H1975-TM cells assessed as induction of EGFR degradation by measuring remaining activity at 100 nM incubated for 6 hrs by Western blot analysis (reference value: 100%); type: cell-based
[4] = molecular target: Epidermal growth factor receptor (Homo sapiens) (UniProt P00533); assay: Inhibition of EGFR signaling in human H1975-TM cells harboring EGFR L858R/T790M/C797S mutant assessed as reduction in AKT activation by Western blot analysis; type: cell-based; details: dose 1.2-300 nM
[5] = MRT (0 to infinity) in male Sprague-Dawley rat at 50 mg/kg, po measured after 24 hrs by LC-MS/MS analysis; type: ADME, organism-based; details: in vivo
[6] = test system: H1975-TM; assay: Antitumor activity against human H1975-TM cells xenografted in BALB/c nude mouse assessed as decrease in tumor cell proliferation at 25 to 100 mg/kg, po administered once daily for 31 days by Ki67 staining based light microscopic analysis; type: functional, organism-based; details: dose 25-100 mg/kg, time 31.0 day
[7] = test system: H1975-TM; assay: Inhibition of colony formation in human H1975-TM cells harboring EGFR L858R/T790M/C797S mutant at 3.7 to 100 nM incubated for 14 days by crystal violet staining based analysis; type: functional, cell-based; details: dose 3.7-100 nM, time 14.0 day
[8] = Antiproliferative activity against human HI975-TM cells harboring EGFR L858R/T790M/C797S mutant assessed as inhibition of cell growth incubated for 72 hrs by CCK-8 assay; type: functional, cell-based; details: H1975-TM
[9] = molecular target: Epidermal growth factor receptor (Homo sapiens) (UniProt P00533); assay: Inhibition of EGFR signaling in human H1975-TM cells harboring EGFR L858R/T790M/C797S mutant assessed as reduction in EGFR phosphorylation by Western blot analysis; type: cell-based; details: dose 1.2-300 nM
[10] = Toxicity in BALB/c nude mouse xenografted with human H1975-TM cells assessed as kidney lesions at 25 to 100 mg/kg, po administered once daily for 31 days by Hematoxylin and eosin staining based analysis; type: organism-based; details: in vivo, 744 h, dose 25-100 mg/kg, time 31 day
[11] = molecular target: Protein cereblon/Epidermal growth factor receptor (Homo sapiens, UniProt P00533+Q96SW2); assay: (§1) PROTAC activity at CRBN/EGFR exon 19 deletion/T790M/C797S mutant in human PC-9-TM cells assessed as induction of EGFR degradation incubated for 24 hrs by Western blot analysis; type: cell-based
[12] = test system: Protein cereblon/Epidermal growth factor receptor (Homo sapiens), P00533+Q96SW2 [UNDEFINED MUTATION]; assay: as §1; type: cell-based
[13] = test system: H1975-TM; assay: Induction of cell cycle arrest in human H1975-TM cells harboring EGFR L858R/T790M/C797S mutant assessed as accumulation of cells at G0/G1 phase at 5 to 60 nM incubated for 24 hrs by RNase/PI staining based analysis; type: functional; details: dose 5-60 nM
[14] = AUC (0 to infinity) in male Sprague-Dawley rat at 5 mg/kg, iv measured after 24 hrs by LC-MS/MS analysis; type: ADME, organism-based; details: in vivo
[15] = Toxicity in BALB/c nude mouse xenografted with human H1975-TM cells assessed as spleen lesions at 25 to 100 mg/kg, po administered once daily for 31 days by Hematoxylin and eosin staining based analysis; type: organism-based; details: in vivo, 744 h, dose 25-100 mg/kg, time 31 day
[16] = test system: H1975-TM; assay: Antitumor activity against human H1975-TM cells xenografted in BALB/c nude mouse assessed as increase in tumor necrosis at 25 to 100 mg/kg, po administered once daily for 31 days by H&E staining based light microscopic analysis; type: functional, organism-based; details: dose 25-100 mg/kg, time 31.0 day
[17] = test system: Mus musculus; assay: In vivo inhibition of EGFR signaling in BALB/c nude mouse xenografted with human […] cells assessed as reduction in ERK activation at 25 to 100 mg/kg, po administered once daily for 31 days by Western blot analysis; type: functional, organism-based; details: dose 25-100 mg/kg, time 31.0 day
[18] = molecular target: Aurora kinase B (Homo sapiens) (UniProt Q96GD4); assay: Induction of AURKB degradation in human H1975-TM cells at 50 nM incubated for 24 hrs; type: cell-based
Sequence of Aurora kinase B (Homo sapiens) (Q96GD4 whole entry): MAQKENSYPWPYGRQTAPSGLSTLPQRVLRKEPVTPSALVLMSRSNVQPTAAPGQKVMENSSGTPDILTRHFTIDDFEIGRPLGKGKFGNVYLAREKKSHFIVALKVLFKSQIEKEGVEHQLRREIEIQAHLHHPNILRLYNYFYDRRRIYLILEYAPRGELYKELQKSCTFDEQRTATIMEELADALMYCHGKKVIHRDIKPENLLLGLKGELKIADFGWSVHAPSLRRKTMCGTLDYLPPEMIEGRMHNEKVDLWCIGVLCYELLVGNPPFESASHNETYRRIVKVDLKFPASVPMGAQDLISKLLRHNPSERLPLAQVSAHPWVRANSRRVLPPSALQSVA

Sequence of Epidermal growth factor receptor (Homo sapiens) (P00533 whole entry): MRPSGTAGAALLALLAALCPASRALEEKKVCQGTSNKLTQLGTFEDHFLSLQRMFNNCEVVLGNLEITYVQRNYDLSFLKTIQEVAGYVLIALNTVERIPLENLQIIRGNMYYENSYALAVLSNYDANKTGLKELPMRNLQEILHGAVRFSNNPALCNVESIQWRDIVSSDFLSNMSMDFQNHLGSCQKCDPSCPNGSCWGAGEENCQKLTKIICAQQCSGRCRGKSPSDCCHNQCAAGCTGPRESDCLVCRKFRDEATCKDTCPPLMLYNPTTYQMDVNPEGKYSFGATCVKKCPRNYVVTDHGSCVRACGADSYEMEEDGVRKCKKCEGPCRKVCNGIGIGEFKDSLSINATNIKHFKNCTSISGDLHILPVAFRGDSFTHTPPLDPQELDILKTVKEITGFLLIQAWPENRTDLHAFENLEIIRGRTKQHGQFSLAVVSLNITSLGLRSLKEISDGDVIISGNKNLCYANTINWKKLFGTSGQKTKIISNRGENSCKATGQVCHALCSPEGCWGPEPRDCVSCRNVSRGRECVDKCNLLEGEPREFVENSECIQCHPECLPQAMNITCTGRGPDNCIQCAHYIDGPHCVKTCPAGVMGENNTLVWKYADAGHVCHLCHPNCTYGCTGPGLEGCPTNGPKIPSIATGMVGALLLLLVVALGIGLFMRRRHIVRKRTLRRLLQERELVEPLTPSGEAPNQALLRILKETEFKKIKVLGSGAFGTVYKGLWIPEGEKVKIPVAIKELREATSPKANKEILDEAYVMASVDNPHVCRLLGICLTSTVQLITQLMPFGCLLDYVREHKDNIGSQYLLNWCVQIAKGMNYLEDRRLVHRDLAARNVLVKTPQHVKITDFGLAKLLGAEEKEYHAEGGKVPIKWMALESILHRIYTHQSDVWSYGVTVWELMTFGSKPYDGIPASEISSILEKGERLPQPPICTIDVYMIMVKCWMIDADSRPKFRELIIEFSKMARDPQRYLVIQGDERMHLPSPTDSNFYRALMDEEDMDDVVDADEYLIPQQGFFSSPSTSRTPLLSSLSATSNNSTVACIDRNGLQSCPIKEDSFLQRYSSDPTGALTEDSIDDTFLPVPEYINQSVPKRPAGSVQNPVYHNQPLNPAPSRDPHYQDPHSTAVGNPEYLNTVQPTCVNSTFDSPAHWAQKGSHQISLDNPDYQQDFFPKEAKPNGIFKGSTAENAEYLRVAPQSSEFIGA
Sequence of Ribosomal protein S6 kinase alpha-1 (Homo sapiens) (Q15418 whole entry): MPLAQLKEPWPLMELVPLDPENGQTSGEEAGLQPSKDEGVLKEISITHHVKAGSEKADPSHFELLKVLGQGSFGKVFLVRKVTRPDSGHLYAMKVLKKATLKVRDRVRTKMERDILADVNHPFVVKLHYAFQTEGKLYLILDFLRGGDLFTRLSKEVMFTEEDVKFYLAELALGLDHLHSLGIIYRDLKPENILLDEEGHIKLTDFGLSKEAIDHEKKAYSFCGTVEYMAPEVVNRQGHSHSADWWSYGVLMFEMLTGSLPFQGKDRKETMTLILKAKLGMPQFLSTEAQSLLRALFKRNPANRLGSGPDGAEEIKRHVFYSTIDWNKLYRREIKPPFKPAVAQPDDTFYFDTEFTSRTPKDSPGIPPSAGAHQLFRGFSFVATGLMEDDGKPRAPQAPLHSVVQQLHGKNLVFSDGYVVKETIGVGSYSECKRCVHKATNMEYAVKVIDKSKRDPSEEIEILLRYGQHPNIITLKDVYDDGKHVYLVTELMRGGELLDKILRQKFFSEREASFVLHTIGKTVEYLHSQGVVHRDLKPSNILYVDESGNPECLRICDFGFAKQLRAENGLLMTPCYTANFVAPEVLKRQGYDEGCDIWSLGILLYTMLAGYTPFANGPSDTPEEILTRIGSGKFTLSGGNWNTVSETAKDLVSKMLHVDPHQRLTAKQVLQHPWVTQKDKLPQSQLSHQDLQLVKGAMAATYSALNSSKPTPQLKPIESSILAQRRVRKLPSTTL
Sequence of Protein cereblon/Epidermal growth factor receptor (P00533 whole entry, looked up, stated change not applied): as the sequence (P00533 whole entry) above
Sequence of Protein cereblon/Epidermal growth factor receptor (Q96SW2 whole entry, looked up, stated change not applied): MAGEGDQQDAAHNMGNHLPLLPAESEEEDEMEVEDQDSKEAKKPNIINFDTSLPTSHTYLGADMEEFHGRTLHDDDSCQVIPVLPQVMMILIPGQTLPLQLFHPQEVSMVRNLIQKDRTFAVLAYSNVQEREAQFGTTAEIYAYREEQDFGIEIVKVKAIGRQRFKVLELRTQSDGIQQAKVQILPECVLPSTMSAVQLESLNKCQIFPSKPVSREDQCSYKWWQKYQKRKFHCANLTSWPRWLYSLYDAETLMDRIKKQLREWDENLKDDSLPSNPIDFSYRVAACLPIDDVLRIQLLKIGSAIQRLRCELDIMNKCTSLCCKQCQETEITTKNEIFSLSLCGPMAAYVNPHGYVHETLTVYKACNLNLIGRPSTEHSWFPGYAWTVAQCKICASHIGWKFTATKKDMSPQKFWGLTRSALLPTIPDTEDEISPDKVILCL

CCS(=O)(=O)n1cc(-c2nc(Nc3ccc(N4CCN(CCCCCCC(=O)Nc5cccc6c5CN(C5CCC(=O)NC5=O)C6=O)CC4)cc3)ncc2C(F)(F)F)c2ccccc21 (stereo not drawn)
Activity [1]: 75.7%
Activity [2]: Active
Activity [3]: 65.9%
inhibition [4]: Dose-Dependent Effect
MRT inf [5]: 21.4 h
Activity [6]: Active
inhibition [7]: Active
IC50 [8]: 10.3 nM
inhibition [9]: Dose-Dependent Effect
Activity [10]: Non-Toxic
DC50 [11]: 36.5 nM
Activity [12]: Dose-Dependent Effect
Activity [13]: Active
AUC(0-inf) [14]: 1800 ng·h/mL
Activity [15]: Non-Toxic
Activity [16]: Active
inhibition [17]: Active
Activity [18]: Active

— ChEMBL document CHEMBL5543167, “Design, Synthesis, and Biological Evaluation of Novel EGFR PROTACs Targeting C797S Mutation” (J Med Chem, 2024)
